pIC50: −log10 of the molar value.

For experiment [1], the system named is Eosinophil peroxidase. As to the kind of experiment: Uterine Eosinophil Peroxidase (EPO) Assay in ovariectomized rats. The experiment is classed as in vivo, Sprague Dawley rats. The settings on record: daily for 4 days, OVX rats. How it is done: (§1) In the examples illustrating the methods, a postmenopausal model was used in which effects of different treatments upon circulating lipids were determined.
(§2) Seventy-five day old female Sprague Dawley rats (weight range of 200 to 225 g) were obtained from Charles River Laboratories (Portage, Mich.). The animals were either bilaterally ovariectomized (OVX) or exposed to a Sham surgical procedure at Charles River Laboratories, and then shipped after one week. Upon arrival, they were housed in metal hanging cages in groups of 3 or 4 per cage and had ad libitum access to food (calcium content approximately 0.5%) and water for one week. Room temperature was maintained at 22.2°±1.7° C. with a minimum relative humidity of 40%. The photoperiod in the room was 12 hours light and 12 hours dark.
(§3) Dosing Regimen Tissue Collection. After a one week acclimation period (therefore, two weeks post-OVX) daily dosing with test compound was initiated. 17α-ethynyl estradiol or the test compound were given orally, unless otherwise stated, as a suspension in 1% carboxymethylcellulose or dissolved in 20% cyclodextrin. Animals were dosed daily for 4 days. Following the dosing regimen, animals were weighed and anesthetized with a ketamine: xylazine (2:1, V:V) mixture and a blood sample was collected by cardiac puncture. The animals were then sacrificed by asphyxiation with CO2, the uterus was removed through a midline incision, and a wet uterine weight was determined.
Uterine Eosinophil Peroxidase (EPO) Assay. Uteri were kept at 4° C. until time of enzymatic analysis. The uteri were then homogenized in 50 volumes of 50 mM Tris buffer (pH-8.0) containing 0.005% Triton X-100. Upon addition of 0.01% hydrogen peroxide and 10 mM O-phenylenediamine (final concentrations) in Tris buffer, increase in absorbance was monitored for one minute at 450 nm. The presence of eosonophils in the uterus is an indication of estrogenic activity of a compound. The maximal velocity of a 15 second interval was determined over the initial, linear portion of the reaction curve.
(§4) Source of Compound: 17α-ethynyl estradiol was obtained from Sigma Chemical Co., St. Louis, Mo.
As is expressed in the data below, estrogenicity also was assessed by evaluating the adverse response of eosinophil infiltration into the uterus.
(§5) The data presented in Table 1 below reflects the response of 5 to 6 rats per treatment.

Experiment [2] concerns serum cholesterol. The experiment can be described thus: Serum cholesterol in ovariectomized rats (Cholesterol Analysis). The experiment is classed as in vivo, Sprague Dawley rats. The settings on record: daily for 4 days, OVX rats. How it is done: as §1, §2, §3
Cholesterol Analysis. Blood samples were allowed to clot at room temperature for 2 hours, and serum was obtained following centrifugation for 10 minutes at 3000 rpm. Serum cholesterol was determined using a Boehringer Mannheim Diagnostics high performance cholesterol assay. Briefly the cholesterol was oxidized to cholest-4-en-3-one and hydrogen peroxide. The hydrogen peroxide was then reacted with phenol and 4-aminophenazone in the presence of peroxidase to produce a p-quinone imine dye, which was read spectrophotemetrically at 500 nm. Cholesterol concentration was then calculated against a standard curve.
as §4
(§6) Data presented in Table 1 below show comparative results among ovariectomized rats, rats treated with 17α-ethynyl estradiol (EE2; an orally available form of estrogen), and rats treated with certain compounds of the instant invention. […] This uterine response to estrogen is well recognized in the art.
as §5

Experiment [3] concerns uterus. As to the kind of experiment: Uterine weight in ovariectomized rats, 4 days daily oral dosing (postmenopausal model). The experiment is classed as in vivo, Sprague Dawley rats. To be noted: daily for 4 days, OVX rats. How it is done:
as §1, §2, §3, §4, §6, §5

Experiment [4] relates to MCF-7 breast adenocarcinoma cells. As to the kind of experiment: MCF-7 Proliferation Assay (tritiated thymidine incorporation). The experiment is classed as cell-based. To be noted: Homo sapiens, MCF7; 48 hours with drug, then tritiated thymidine 4 hours; read-out: ED50 (MCF-7 proliferation). How it is done: MCF-7 breast adenocarcinoma cells (ATCC HTB 22) were maintained in MEM (minimal essential medium, phenol red-free, Sigma, St. Louis, Mo.) supplimented with 10% fetal bovine serum (FBS) (V/V), L-glutamine (2 mM), sodium pyruvate (1 mM), HEPES {(N-[2-hydroxyethyl]piperazine-N'-[2-ethanesulfonic acid]10 mM}, non-essential amino acids and bovine insulin (1 μg/mL) (maintenance medium). Ten days prior to assay, MCF-7 cells were switched to maintenance medium supplemented with 10% dextran coated charcoal stripped fetal bovine serum (DCC-FBS) assay medium) in place of 10% FBS to deplete internal stores of steroids. MCF-7 cells were removed from maintenance flasks using cell dissociation medium (Ca^++ /Mg^++ free HBSS (phenol red-free) supplemented with 10 mM HEPES and 2 mM EDTA). Cells were washed twice with assay medium and adjusted to 80,000 cells/mL. Approximately […] (8,000 cells) were added to flat-bottom microculture wells (Costar 3596) and incubated at 37° C. in a 5% CO2 humidified incubator for 48 hours to allow for cell adherence and equilibration after transfer. Serial dilutions of drugs or DMSO as a diluent control were prepared in assay medium and […] to triplicate microcultures followed by […] assay medium for a final volume of […]. After an additional 48 hours at 37° C. in a 5% CO2 humidified incubator, microcultures were pulsed with tritiated thymidine (1 uCi/well) for 4 hours. Cultures were terminated by freezing at -70° C. for 24 hours followed by thawing and harvesting of microcultures using a Skatron Semiautomatic Cell Harvester. Samples were counted by liquid scintillation using a Wallace BetaPlace β counter. Results in Table 3 below show the ED50 (nM) for certain compounds of the instant invention: […]
(In general: Uptake of a labelled nucleoside into DNA is a usual measure of proliferation.)

In experiment [5] the test system is femur. The experiment can be described thus: Osteoporosis Test Procedure: bone protection in ovariectomized rats, 35 days oral. Format: in vivo. The settings on record: 35 days, relative to ovariectomy. How it is done: Following the General Preparation Procedure, infra, the rats are treated daily for 35 days (6 rats per treatment group) and sacrificed by carbon dioxide asphyxiation on the 36th day. The 35 day time period is sufficient to allow maximal reduction in bone density, measured as described herein. At the time of sacrifice, the uteri are removed, dissected free of extraneous tissue, and the fluid contents are expelled before determination of wet weight in order to confirm estrogen deficiency associated with complete ovariectomy. […] The uteri are then placed in 10% neutral buffered formalin to allow for subsequent histological analysis. The right femurs are excised and digitilized x-rays generated and analyzed by an image analysis program (NIH image) at the distal metaphysis. The proximal aspect of the tibiae from these animals are also scanned by quantitative computed tomography. In accordance with the above procedures, compounds of the instant invention and ethynyl estradiol (EE2) in 20% hydroxypropyl β-cyclodextrin are orally administered to test animals. Distal femur metaphysis and proximal tibiae data are the results of formula I compound treatments compared to intact and ovariectomized test animals. Results are reported as percent protection relative to ovariectomy in Table 2 below.

On to `Cl.Oc1ccc2c3c(sc2c1)-c1ccccc1C3c1ccc(OCCN2CCCCC2)cc1` (stereo not drawn) [Example 6, 10-[4-[2-(1-Piperidinyl)ethoxy]phenyl]-7-hydroxy benzo[b]indeno[2,1-d]thiophene hydrochloride], for which the “Uterine Eosinophil peroxidase, Vmax” value turned out to be 2.9 in experiment [1] (0.1 mg/kg PO), 3.7 in experiment [1] (1 mg/kg PO) and 29.8 in experiment [1] (10 mg/kg PO). Further, the “Serum Cholest. % Decrease verses ovariectomized controls” value is 1.3% in experiment [2] (0.1 mg/kg PO), 40.6% in experiment [2] (1 mg/kg PO) and 69.9% in experiment [2] (10 mg/kg PO). The results for the “Uterine Weight % Increase verses ovariectomized controls” value in experiment [3] (0.1 mg/kg PO), in experiment [3] (1 mg/kg PO) and in experiment [3] (10 mg/kg PO) were 32.5%, 67.4% and 54.0%, respectively. Besides, the pIC50 in experiment [4] was 8.00. Moreover, the “Femur BMD % protection” value in experiment [5] (0.01 mg/kg oral) is listed as 40.4%; in experiment [5] (0.1 mg/kg oral) it was 46.6%; in experiment [5] (1 mg/kg oral), 66.6%; in experiment [5] (10 mg/kg oral) it was 64.0%. Moreover, the “Femur. % Protection (x-ray image)” value in experiment [5] (0.01 mg/kg oral) worked out at 53.8%; in experiment [5] (0.1 mg/kg oral) it was 39.2%; in experiment [5] (1 mg/kg oral), 73.4%; in experiment [5] (10 mg/kg oral) it was 48.2%.
